Reference: patent US20030059890A1, “DNA encoding the chimpanzee prostaglandin E2 receptor EP4 subtype” (Pfizer Inc., priority 2001, published 2003)
Read-outs that look alike come from different tables or passages of the source.

Columns and labels:
chimpanzee EP4 receptor [1] = biological target: T1, chimpanzee EP4 receptor (Pan troglodytes, UniProt Q95KZ0); experiment: cAMP accumulation (SPA) in CHO cells transiently transfected with chimpanzee EP4; type: cell-based; conditions: 12 minutes treatment, IBMX present, SPA kit
Experimental: Error bars represent one standard deviation.
Secondary signaling in CHO cells expressing chimpanzee EP4 was measured by cAMP accumulation. CHO cells transiently transfected with chimpanzee EP4 were treated for 12 minutes with various concentrations of PGE2 in the presence of 2 mM IBMX. Accumulation of intracellular cAMP was measured at the end of the treatment period by use of a commercially available scintillation proximity assay (SPA) kit (Amersham, Arlington Heights, Ill.).
(§1) Cells were then rinsed once with PBS and the appropriate concentrations of test compounds (diluted in assay buffer: 5 mM MgCl2; 30 mM Hepes pH 7.4; 0.3 mM 3-isobutyl-1-methylxanthine, (IBMX; Calbiochem, La Jolla, Calif.); 1 mg/ml dextrose) were added. The plate was incubated at 37° C. for 12 minutes, after which 10 μl lysis buffer was added to each well to terminate the reaction. SPA reagent (RPA559, Amersham, Piscataway, N.J.) was prepared according to the manufacturer's protocol and 120 μl was added to each well. Assay plates were then counted in a Wallac Trilux counter (Perkin Elmer, Boston, Mass.).

parental CHO-K1 cells = experiment: cAMP levels in parental (untransfected) CHO-K1 cells; type: cell-based, Chinese hamster; conditions: parental CHO-K1 cells (not transfected)
Experimental: The protein-coding region of chimpanzee EP4 was contained in open reading frame of 1470 bp and encodes a protein of 490 amino acids with a predicted molecular weight of 53.4 kD.
as §1

chimpanzee EP4 receptor [2] = biological target: T1, chimpanzee EP4 receptor; experiment: Competition binding of 3H-PGE2 on CHO-K1 cells transiently transfected with chimpanzee EP4
Experimental: Competitive binding of various prostanoid ligands for EP1-EP4 with ^3H-PGE2 on CHO cells transiently transfected with chimpanzee EP4. Each indicated concentration of (▪) PGE2, (●) sulprostone, (▴) butaprost, or (♦) EP4SL was incubated with three wells of a 24-well dish of CHO cells transiently transfected with chimpanzee EP4 for 1 hr on ice in the presence of 3 nM 3H-PGE2. Following washing and solubilization of the cells, specific binding was determined by scintillation counting. Error bars represent one standard deviation.
The day prior to transfection, CHO-K1 cells were plated in 100 mm dishes (Corning, Corning, N.Y.) at 6×10^4 cells/cm^2 in DMEM/F12 (Life Technologies) supplemented with 10% fetal calf serum (FCS; Gemini Bio-Products, Calabasas, Calif.). The next day, each plate of cells was transfected with 15 g chimpanzee EP4-pCR3.1-Uni plasmid DNA using Lipofectamine 2000 reagent (Life Technologies) according to the manufacturer's protocol. Briefly, 451 of Lipofectamine 2000 reagent was diluted into 1.5 ml of D-MEM/F12 without serum and incubated at room temperature for 5 minutes. During this time, 15g chimpanzee EP4-pCR3.1-Uni plasmid DNA was diluted into 0.5 ml of D-MEM/F12 without serum. The diluted Lipofectamine 2000 reagent and the DNA were then mixed and incubated an additional 20 minutes at room temperature. 8 ml D-MEM/F12 without serum was then added to each reaction and carefully added to a plate of CHO cell previously rinsed with serum free D-M EM/F12. These cells were then incubated at 37° C. with 5% CO2 for 6 hr at which time 1 ml FCS was added per plate and the incubation continued at 37° C. with 5% CO2 overnight. The following day, the cells were split to either 24-well or 96-well dishes for use in ligand binding and/or secondary signaling analyses.
Whole cell binding reactions (0.2 ml per well) containing 3 nM ^3H-PGE2 plus unlabeled competitor (10^−5 to 10^−10 M) were performed on ice for 1 hr. Unbound radioligand was removed by extensive washing, the cells were solubilized with 1% SDS, and the bound ^3H-PGE2 quantitated by scintillation counting.

T1 sequence (Q95KZ0 whole entry): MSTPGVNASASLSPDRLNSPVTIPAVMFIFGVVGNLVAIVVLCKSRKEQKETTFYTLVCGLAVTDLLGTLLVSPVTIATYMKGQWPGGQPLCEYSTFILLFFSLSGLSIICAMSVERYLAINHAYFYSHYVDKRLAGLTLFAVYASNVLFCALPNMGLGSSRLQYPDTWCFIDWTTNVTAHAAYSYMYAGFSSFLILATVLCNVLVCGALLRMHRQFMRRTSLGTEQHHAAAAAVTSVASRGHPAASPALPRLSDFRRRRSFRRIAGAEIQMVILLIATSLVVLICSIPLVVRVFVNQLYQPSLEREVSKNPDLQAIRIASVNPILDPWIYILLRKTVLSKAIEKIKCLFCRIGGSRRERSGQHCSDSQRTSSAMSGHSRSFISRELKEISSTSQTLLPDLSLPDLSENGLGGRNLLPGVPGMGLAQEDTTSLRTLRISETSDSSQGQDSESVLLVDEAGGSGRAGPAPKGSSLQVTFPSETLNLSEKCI

Row | IC50 (chimpanzee EP4 receptor [2]) [nM] | binding to the chimpanzee EP4 receptor (competition with 3H-PGE2) (chimpanzee EP4 receptor [2]; CHO-K1 cells transiently transfected with chimpanzee EP4, competitor 10^-5 to 10^-10 M) | SMILES | EC50 (chimpanzee EP4 receptor [1]) [nM] | increased levels of cAMP (parental CHO-K1 cells) | IC50 (chimpanzee EP4 receptor [2]; read-out: IC50 for displacement of 3H-PGE2 binding, whole CHO-K1 cells transiently transfected with chimpanzee EP4, 3 nM 3H-PGE2, 1 hr on ice) [nM]
1 | 300 |  | O=C(O)CCCCCCN1C(=O)CCC1CCC(O)Cc1ccccc1 (stereo not shown) [EP4SL, 7-[2-(3-hydroxy-4-phenyl-butyl)-5-oxo-pyrrolidin-1-yl]-heptanoic acid] | 560 | not in parental CHO-K1 cells | 
2 |  |  | CCCCC[C@H](O)/C=C/[C@H]1[C@H](O)CC(=O)[C@@H]1C/C=C\CCCC(=O)O [PGE2, Prostaglandin E2] | 8.9 | not in parental CHO-K1 cells | 2.5
3 |  | did not bind | CCCC1([C@H](O)C/C=C/[C@H]2[C@H](O)CC(=O)[C@@H]2CCCCCCC(=O)OC)CCC1 [butaprost] |  |  | 
